Converted amounts (≈) assume the structure as drawn. “And” between values parts separate entries of the source, which are not always exact repeats. Identical values can stand only once. “Also recorded” adds a separate entry of the source. Like-named read-outs stand apart in the source and are kept apart here.
Legend:
[1] = target: T1, DksA (Salmonella typhimurium, UniProt P0A1G5); assay: DksA-mediated repression of rpsM in vitro transcription (IVT, qRT-PCR); assay type: biochemical
Procedure: (§1) To measure the potency of a compound in inhibition of DksA biological function, rpsMtranscripts in vitro was determined by non-radioactive in vitro transcription reactions with qPCR analysis with divergent compounds. Briefly, 5 nM pTIM-rpsMplasmid was mixed with 0.1-100 nM of compounds in 10 μl reaction buffer (40 mM HEPES [pH 7.4], 2 mM MgCl2, 60 mM potassium glutamate, 0.05% NP-40, 200 μM ATP, 200 μM GTP, 200 μM CTP, 200 μM UTP, and 5 nM E. coli RNA polymerase holoenzyme (NEB, Ipswich, MA) with 5 μM DksA. The in vitro transcription was carried out at 37° C. for 10 min, and then terminated at 70° C. for 10 min. To remove template DNA after treated with DNaseI, DNA-free DNA Removal kit (ThermoFisher) was used according to manufacturer's direction. The resulting materials were used as templates to generate cDNA with 100 U MMLV reverse transcriptase (Promega), 0.45 μM gene specific primer, and 20 U RNase inhibitor (Promega). The amount of cDNA synthesized for 1 h at 42° C. was quantified by real-time PCR (qRT-PCR). The copy number of specific transcripts was calculated to the standard curve generated with known gene copy concentrations. The IC50 is the concentration at which the curve passes through the 50% inhibition level. Standard deviation was calculated from 3 independent experiments.
The compounds obtained in this screen were further analyzed for binding to the acidic pocket at the tip of DksA coiled-coil domain using the computer search program Dock. The analysis identified over 400 compounds. A panel of 40 compounds was selected from the top hits based on free energy binding scores. These compounds were investigated using the computer modeling program O. Two additional criteria were applied in order to narrow down the list of candidates: First, the compounds needed to fit deep into the pocket without any clashes; and second, the compounds bound to DksA should have minimal exposed moieties. The compounds selected were further refined according to energy minimization as calculated by the CNS program. 23 compounds were obtained from MolPort and they were tested for their ability to interfere with DksA in a high throughput screen that combined in vitro transcription with highly specific and quantitative qRT-PCR. Five of these compounds, including N-(3,4-dimethoxyphenyl)-1H-1,2,4-triazole-3-carboxamide (1), prevented DksA-mediated repression of rpsM in vitro transcription to some degree. […] Without intending to be limited to any particular theory, the effect that 1 has on DksA-dependent rpsM or hisG gene transcription is potentially due to differences in promoter activity.
(§2) The compounds were initially tested at 0.1 μM and 1 μM using as a target the promoter of the livJ gene that encodes a transporter of branch-chain amino acids (Table 4).

[2] = target: T1, DksA; assay: DksA-dependent livJ in vitro transcription; assay type: biochemical; conditions: livJ promoter; for IVT: concentration showing activity
Procedure: as §1, §2

[3] = target: T1, DksA; assay: DksA-dependent activation of hisG in vitro transcription; assay type: biochemical; conditions: as little as 0.1 μM
Procedure: To measure the potency of a compound in inhibition of DksA biological function, rpsMtranscripts in vitro was determined by non-radioactive in vitro transcription reactions with qPCR analysis with divergent compounds. […] The amount of cDNA synthesized for 1 h at 42° C. was quantified by real-time PCR (qRT-PCR). The copy number of specific transcripts was calculated to the standard curve generated with known gene copy concentrations. […] Standard deviation was calculated from 3 independent experiments.
The compounds obtained in this screen were further analyzed for binding to the acidic pocket at the tip of DksA coiled-coil domain using the computer search program Dock. […] The compounds selected were further refined according to energy minimization as calculated by the CNS program. 23 compounds were obtained from MolPort and they were tested for their ability to interfere with DksA in a high throughput screen that combined in vitro transcription with highly specific and quantitative qRT-PCR. […]

[4] = tested on: Salmonella strain 14028s; assay: Minimum inhibitory concentration in EG minimal media; assay type: cell-based, Salmonella Typhimurium; conditions: for Growth in EG at concentration tested 1 μg/ml / Growth in EG at concentration tested 2 μg/ml / Growth in EG at concentration tested 4 μg/ml / Growth in EG at concentration tested 8 μg/ml / Growth in EG at concentration tested 16 μg/ml: EG minimal media, 37° C.
Procedure: (§3) DksA controls transcription of metabolic and virulence genes, allowing bacteria to both grow in minimum media and cause disease. Inhibition of bacterial growth in EG minimum media was used as an easy and reliable proxy of the DksA-dependent regulation of metabolism.
In a non-limiting example, wild-type Salmonella strain 14028s was grown overnight (18.5 h), and then diluted in EG minimal media to a density of about 10^5 CFU/mL. […] Each test tube was incubated at 37° C. with shaking for 18 h and bacterial growth was evaluated. The MIC value was determined as the lowest concentration of compound that inhibited growth.

[5] = tested on: E. coli strain 3110; assay: Minimum inhibitory concentration in EG minimum media, E. coli; assay type: cell-based; conditions: Escherichia coli
Description: as §3

[6] = tested on: intracellular Salmonella in J774 macrophage-like cells; assay: Intracellular growth of Salmonella in macrophages; assay type: cell-based; conditions: for Antimicrobial activity against intracellular Salmonella growing in macrophages: J774 cells, cell culture media containing 10% fetal bovine serum
[7] = tested on: J774 cells; assay: Lactate dehydrogenase (LDH) release from infected host cells; assay type: cell-based; conditions: 32 μg/ml; 18 h after infection with wild-type or ΔdksA Salmonella; p=0.3
[8] = Compound solubility; assay type: physicochemical; conditions: for Compound Solubility, 1 μM: solvent at 1 μM; for Compound Solubility, 10 μM: solvent at 10 μM; for Compound Solubility, 100 μM: solvent at 100 μM; for Compound Solubility, 1 mM: solvent at 1 mM; for Compound Solubility, 10 mM: solvent at 10 mM; for Compound Solubility, 16 mg/ml: solvent at 16 mg/ml
[9] = tested on: Salmonella; assay: Disk diffusion assay; assay type: cell-based; conditions: among drugs that inhibited DksA function in the in vitro screens
Procedure: Salmonella was grown overnight in LB broth at 37° C. with shaking. The bacterial cultures were diluted by 1:1000 with PBS. 100 μl of the diluted samples were transferred into E-salts glucose agar. The bacteria were spread on the surface of the agar. Two discs (BBL blank paper discs 6 mm) were placed per/plate, and 10 μl of 10 mM or 100 mM stock compound were added to the discs. The plates were incubated at 37° C. overnight. The diameter of inhibition was expressed in mm.

[10] = tested on: SPI2 effector sifA; assay: Intracellular expression of SPI2 effector sifA in infected macrophages; assay type: cell-based; conditions: Salmonella-infected macrophages, 16 μg/ml
[11] = tested on: T2, E. coli RNA polymerase holoenzyme; assay: rpsM in vitro transcription by RNA polymerase itself; assay type: biochemical; conditions: up to 10 μM
T2 construct: purchased NEB, Ipswich, MA
Procedure: as §1, with “Briefly, 5 nM pTIM-rpsMplasmid was mixed with 0.1-100 nM of compounds in 10 μl reaction buffer (40 mM HEPES [pH 7.4], 2 mM MgCl2, 60 mM potassium glutamate, 0.05% NP-40, 200 μM ATP, 200 μM GTP, 200 μM CTP, 200 μM UTP, and 5 nM E. coli RNA polymerase holoenzyme (NEB, Ipswich, MA) with 5 μM DksA.” left out
The compounds obtained in this screen were further analyzed for binding to the acidic pocket at the tip of DksA coiled-coil domain using the computer search program Dock. The analysis identified over 400 compounds. […] The compounds selected were further refined according to energy minimization as calculated by the CNS program. […]

[12] = tested on: Salmonella strain 14028s; assay: Growth and survival assay in combination with antibiotics that target DNA replication; assay type: cell-based; conditions: #21 8 μg/ml, #23 16 μg/ml; EG media, 37° C., 20 hrs
Procedure: Salmonella strain 14028s was grown overnight at 37° C. with shaking in LB broth. Cell density was measured by spectrometer by following OD600. Cells were centrifuged and washed once with EG Minimal Salts Media (57.4 mM K2HPO4, 1.7 mM MgSO4, 9.5 mM Citric acid, 16.7 mM H5NNaPO4, and 0.4% D-Glucose, pH 7.0). The specimens were then resuspended with EG media and adjusted to the final concentration of 1×10^5/ml.
One hundred microliters of the cell dilution were plated onto LB agar plate to verify the starting concentration. Ten 5-ml cell culture tubes were prepared, and the diluted cells were transferred to the culture tubes at 1 ml/tube. The first culture tube was reserved as the control. The remaining nine tubes were divided into 3 groups (3 tubes each), which were treated with Nitrofurazone, 4-Nitroquinoline N-oxide, and Mitomycin C at 8 μM, 8 μM, and 0.75 μM, respectively. Within each group, two of the tubes additionally received compounds #21 or #23 at 8 μg/ml and 16 μg/ml, respectively. All tubes were then incubated with shaking at 37° C. for 20 hrs. Cells were collected, diluted, plated on LB agar plates, and subsequently counted. Survival percentages were calculated using bacteria counts divided by starting concentration.

T1 sequence (P0A1G5 whole entry): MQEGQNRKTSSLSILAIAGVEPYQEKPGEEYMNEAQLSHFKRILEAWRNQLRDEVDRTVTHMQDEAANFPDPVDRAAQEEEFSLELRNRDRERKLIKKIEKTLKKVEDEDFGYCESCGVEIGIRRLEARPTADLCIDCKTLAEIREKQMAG
T2 sequence (P0A7Z4 whole entry): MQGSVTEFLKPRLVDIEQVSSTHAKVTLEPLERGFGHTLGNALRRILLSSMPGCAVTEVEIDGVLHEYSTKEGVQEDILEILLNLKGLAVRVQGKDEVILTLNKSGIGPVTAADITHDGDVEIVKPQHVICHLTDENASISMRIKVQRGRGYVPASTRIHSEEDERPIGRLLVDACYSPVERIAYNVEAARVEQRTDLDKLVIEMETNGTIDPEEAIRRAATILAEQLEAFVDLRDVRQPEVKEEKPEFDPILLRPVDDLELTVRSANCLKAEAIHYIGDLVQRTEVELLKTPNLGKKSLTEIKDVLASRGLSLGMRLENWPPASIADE
T2 sequence (P0A8V2 whole entry, further chain): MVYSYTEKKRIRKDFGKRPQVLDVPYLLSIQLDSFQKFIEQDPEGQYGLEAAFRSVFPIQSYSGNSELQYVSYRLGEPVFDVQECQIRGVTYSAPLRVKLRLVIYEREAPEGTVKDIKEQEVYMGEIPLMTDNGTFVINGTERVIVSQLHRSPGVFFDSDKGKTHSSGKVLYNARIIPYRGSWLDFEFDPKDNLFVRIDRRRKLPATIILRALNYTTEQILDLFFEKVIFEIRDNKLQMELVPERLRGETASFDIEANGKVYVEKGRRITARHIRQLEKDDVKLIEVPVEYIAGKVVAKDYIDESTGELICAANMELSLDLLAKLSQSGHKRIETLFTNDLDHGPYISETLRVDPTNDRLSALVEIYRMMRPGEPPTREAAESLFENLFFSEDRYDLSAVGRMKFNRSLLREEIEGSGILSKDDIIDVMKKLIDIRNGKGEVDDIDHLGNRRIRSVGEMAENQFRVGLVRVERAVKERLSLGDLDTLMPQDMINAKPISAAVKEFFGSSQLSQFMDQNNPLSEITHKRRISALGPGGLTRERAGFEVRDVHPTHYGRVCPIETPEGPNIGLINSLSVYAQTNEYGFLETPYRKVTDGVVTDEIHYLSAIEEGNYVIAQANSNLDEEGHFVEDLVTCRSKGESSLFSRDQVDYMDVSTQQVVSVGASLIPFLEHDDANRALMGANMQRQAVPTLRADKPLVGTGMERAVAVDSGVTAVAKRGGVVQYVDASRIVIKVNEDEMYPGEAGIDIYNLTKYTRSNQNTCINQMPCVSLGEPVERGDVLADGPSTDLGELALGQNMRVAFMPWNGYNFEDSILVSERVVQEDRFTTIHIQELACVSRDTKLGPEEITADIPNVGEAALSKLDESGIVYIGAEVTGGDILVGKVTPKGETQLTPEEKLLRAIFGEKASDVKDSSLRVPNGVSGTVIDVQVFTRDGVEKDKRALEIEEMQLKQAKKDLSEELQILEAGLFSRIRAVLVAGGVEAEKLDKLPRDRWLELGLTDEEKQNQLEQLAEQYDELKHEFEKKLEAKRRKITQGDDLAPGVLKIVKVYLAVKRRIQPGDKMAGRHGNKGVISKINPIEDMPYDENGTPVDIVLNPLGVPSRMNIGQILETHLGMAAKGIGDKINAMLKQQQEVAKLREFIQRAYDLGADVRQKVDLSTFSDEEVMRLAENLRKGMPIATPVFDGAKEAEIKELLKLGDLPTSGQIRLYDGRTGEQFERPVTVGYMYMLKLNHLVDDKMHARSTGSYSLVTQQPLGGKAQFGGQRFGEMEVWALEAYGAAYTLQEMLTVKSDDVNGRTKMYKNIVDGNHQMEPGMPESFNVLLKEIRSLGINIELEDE
T2 sequence (P0A8T7 whole entry, further chain): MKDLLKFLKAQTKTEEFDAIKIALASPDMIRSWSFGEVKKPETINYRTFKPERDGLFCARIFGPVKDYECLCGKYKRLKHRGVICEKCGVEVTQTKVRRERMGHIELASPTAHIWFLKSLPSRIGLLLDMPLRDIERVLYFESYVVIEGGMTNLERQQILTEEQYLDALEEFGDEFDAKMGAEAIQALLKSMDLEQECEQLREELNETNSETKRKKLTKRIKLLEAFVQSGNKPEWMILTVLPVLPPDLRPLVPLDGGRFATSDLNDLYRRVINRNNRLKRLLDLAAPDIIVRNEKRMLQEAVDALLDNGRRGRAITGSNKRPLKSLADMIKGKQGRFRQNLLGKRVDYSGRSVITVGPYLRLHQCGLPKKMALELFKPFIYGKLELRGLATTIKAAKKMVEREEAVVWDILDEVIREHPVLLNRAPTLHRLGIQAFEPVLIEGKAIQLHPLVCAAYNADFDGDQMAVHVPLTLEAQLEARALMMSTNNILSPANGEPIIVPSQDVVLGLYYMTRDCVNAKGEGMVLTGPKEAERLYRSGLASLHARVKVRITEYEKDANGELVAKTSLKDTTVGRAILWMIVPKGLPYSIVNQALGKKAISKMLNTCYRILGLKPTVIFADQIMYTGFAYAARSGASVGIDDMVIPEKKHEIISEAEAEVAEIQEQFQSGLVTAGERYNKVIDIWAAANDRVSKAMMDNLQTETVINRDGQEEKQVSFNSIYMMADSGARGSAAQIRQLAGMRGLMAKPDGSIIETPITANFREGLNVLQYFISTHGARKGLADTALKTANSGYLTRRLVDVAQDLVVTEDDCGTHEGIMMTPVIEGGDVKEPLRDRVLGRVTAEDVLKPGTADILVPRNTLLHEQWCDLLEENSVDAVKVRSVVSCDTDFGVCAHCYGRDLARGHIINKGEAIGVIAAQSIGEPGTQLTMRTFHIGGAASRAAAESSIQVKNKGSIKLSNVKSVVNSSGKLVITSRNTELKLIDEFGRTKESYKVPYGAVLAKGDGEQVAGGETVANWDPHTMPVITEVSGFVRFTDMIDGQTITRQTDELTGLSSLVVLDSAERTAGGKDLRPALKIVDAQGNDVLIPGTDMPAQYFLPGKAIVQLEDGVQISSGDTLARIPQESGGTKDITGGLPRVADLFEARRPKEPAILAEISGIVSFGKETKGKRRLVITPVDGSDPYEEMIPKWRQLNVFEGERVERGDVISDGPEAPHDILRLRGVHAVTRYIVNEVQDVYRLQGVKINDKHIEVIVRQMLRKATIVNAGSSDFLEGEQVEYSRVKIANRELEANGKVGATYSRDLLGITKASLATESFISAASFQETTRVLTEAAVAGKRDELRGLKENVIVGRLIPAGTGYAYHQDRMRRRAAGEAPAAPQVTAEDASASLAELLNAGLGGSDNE
T2 sequence (P0A800 whole entry, further chain): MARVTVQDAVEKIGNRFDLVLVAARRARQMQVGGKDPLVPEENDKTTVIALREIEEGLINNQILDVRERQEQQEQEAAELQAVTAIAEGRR
T2 sequence (P00579 whole entry, further chain): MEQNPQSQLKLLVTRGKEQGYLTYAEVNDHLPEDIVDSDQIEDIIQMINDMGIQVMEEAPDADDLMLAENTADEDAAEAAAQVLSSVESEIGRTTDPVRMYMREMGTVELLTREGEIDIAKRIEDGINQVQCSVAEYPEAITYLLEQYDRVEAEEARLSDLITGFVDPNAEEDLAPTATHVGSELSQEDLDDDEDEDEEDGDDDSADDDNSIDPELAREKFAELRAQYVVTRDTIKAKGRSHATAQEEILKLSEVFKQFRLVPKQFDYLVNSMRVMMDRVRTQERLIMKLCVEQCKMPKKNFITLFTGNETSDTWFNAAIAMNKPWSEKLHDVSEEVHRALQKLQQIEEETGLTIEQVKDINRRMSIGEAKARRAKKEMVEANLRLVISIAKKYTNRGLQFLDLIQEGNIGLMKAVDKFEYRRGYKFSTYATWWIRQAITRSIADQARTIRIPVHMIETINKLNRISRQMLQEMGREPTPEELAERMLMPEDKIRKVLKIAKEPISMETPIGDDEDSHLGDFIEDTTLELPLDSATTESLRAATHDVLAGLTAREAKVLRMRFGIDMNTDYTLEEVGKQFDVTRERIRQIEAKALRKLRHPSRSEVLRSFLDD

| Compound | In vitro transcription assay result, 0.1 μM [2] | In vitro transcription assay result, 1 μM [2] | IVT [2] [µM] | Growth in EG at concentration tested 1 μg/ml ([4]; 18 h) | Growth in EG at concentration tested 2 μg/ml ([4]; 18 h) | Growth in EG at concentration tested 4 μg/ml ([4]; 18 h) | Growth in EG at concentration tested 8 μg/ml ([4]; 18 h) | Growth in EG at concentration tested 16 μg/ml ([4]; 18 h) | MIC ([4]; Salmonella, 14028S, 18 h) [µg/mL] | Compound Solubility, 1 μM [8] | Compound Solubility, 10 μM [8] | Compound Solubility, 100 μM [8] | Compound Solubility, 1 mM [8] | Compound Solubility, 10 mM [8] | Compound Solubility, 16 mg/ml [8] | further results |
| --- | --- | --- | --- | --- | --- | --- | --- | --- | --- | --- | --- | --- | --- | --- | --- | --- |
| COc1ccc(NC(=O)c2nc[nH]n2)cc1OC [Compound 1, N-(3,4-dimethoxyphenyl)-1H-1,2,4-triazole-3-carboxamide] | no change | good repression | 1 | + | + | + | + | + | 32 (≈ 129 µM) | water | water | water | water | water | DMSO | Inhibition of DksA-mediated repression of rpsM in vitro transcription ([1]; 1 μM): completely inhibited; Activity against DksA-mediated repression of rpsM in vitro transcription ([1]; qualitative, listed as 916): excellent activity; also recorded: best in vitro efficacy; Inhibition of DksA-dependent activation of hisG in vitro transcription [3]: completely inhibited; MIC ([4]; read-out: Minimum inhibitory concentration): 32 µg/mL and 129 µM; MIC [5]: 32 µg/mL; MIC ([5]; converted): 129 µM; Antimicrobial activity against intracellular Salmonella growing in macrophages [6]: potent antimicrobial activity; Antimicrobial activity against intracellular Salmonella growing in macrophages ([6]; listed as 916): inhibits intracellular growth; Intracellular growth of ΔdksA Salmonella ([6]; ΔdksA Salmonella, off-target control): unaffected; Lactate dehydrogenase (LDH) released from J774 cells [7]: did not change; Anti-Salmonella activity in disk diffusion assays [9]: greatest anti-Salmonella activity; Intracellular expression of the SPI2 effector sifA [10]: repressed transcription; Intracellular expression of the SPI2 effector sifA ([10]; listed as 916): inhibits the intracellular expression; Effect on rpsM in vitro transcription by the RNA polymerase itself [11]: did not affect |
| COc1ccc(CCNC(=O)c2nc[nH]n2)cc1 [Compound 21, N-(4-methoxyphenethyl)-1H-1,2,4-triazole-3-carboxamide] | no induction | no induction | 0.1 | + | + | + | + | + | 32 (≈ 130 µM) | water | water | water | water | water | DMSO | Anti-Salmonella activity of 4-nitroquinoline-N-oxide, nitrofurazone and mytomycin in combination [12]: enhanced the anti-Salmonella activity |

Reference: patent publication US12043601B2, “N-substituted-1H-1,2,4-triazole-3-carboxamides, analogues thereof, and methods of treatment using same” (THE REGENTS OF THE UNIVERSITY OF COLORADO, priority 2018, dated 2024)
